Results published in paper PMC7692337, “Masked Phenolic-Selenium Conjugates: Potent and Selective Antiproliferative Agents Overcoming P-gp Resistance” (Pharmaceuticals, 2020).

tested on: WiDr (colon); assay: Antiproliferative activity, NCI protocol; type: cell-based, human; details: Homo sapiens, WiDr; drug resistant line; read-out: GI50 WiDr (Colon)
Method: (§1) Organochalcogen derivatives prepared herein were evaluated in vitro as potential antiproliferative agents, using a panel of six human tumour cell lines: A549 (non-small cell lung), HBL-100 (breast), HeLa (cervix), SW1573 (non-small cell lung), as drug sensitive lines, T-47D (breast) and WiDr (colon) as drug resistant lines. In addition to precursors 2, 6, 7, 13, 14, 17, 19, ebselen and cisplatin (CDDP) were used as reference drugs. […] In both cases, the NCI protocol, with minor modifications, was followed; selected data, including the selectivity index (S.I.) can be found in Table 3 and full data in Supporting Information (Table S1).
(§2) The in vitro antiproliferative activity was assayed using minor modifications of the protocol of the National Cancer Institute (NCI) of the United States against the six human solid tumor cell and the non-tumor cell lines tested.

| SMILES | GI50 [µM] |
| --- | --- |
| N#C[Se]CCc1ccc2c(c1)OCO2 [Compound 36, 2-(3′,4′-Methylendioxyphenyl)ethyl selenocyanate] | 1.3 ± 0.6 |
| c1cc2c(cc1CC[Se][Se]CCc1ccc3c(c1)OCO3)OCO2 [Compound 40, Bis[2-(3′,4′-methylenedioxyphenyl)ethyl]diselenide] | 1.2 ± 0.1 |
| N#C[Se]CCCC(=O)NCCc1ccc2c(c1)OCO2 [Compound 45, N-[2′-(3′,4′-Methylenedioxyphenyl)ethyl]-4-selenocyanatobutanamide] | 0.41 ± 0.03 |

tested on: SW1573 (non-small cell lung); assay: Antiproliferative activity, NCI protocol; type: cell-based, human; details: Homo sapiens, SW1573; Table S1; read-out: GI50 SW1573 (Lung)
Method: as §1, §2

| SMILES | GI50 [µM] |
| --- | --- |
| N#C[Se]CCc1ccc2c(c1)OCO2 [Compound 36, 2-(3′,4′-Methylendioxyphenyl)ethyl selenocyanate] | 3.8 ± 0.1 |
| c1cc2c(cc1CC[Se][Se]CCc1ccc3c(c1)OCO3)OCO2 [Compound 40, Bis[2-(3′,4′-methylenedioxyphenyl)ethyl]diselenide] | 2.7 ± 0.3 |
| N#C[Se]CCCC(=O)NCCc1ccc2c(c1)OCO2 [Compound 45, N-[2′-(3′,4′-Methylenedioxyphenyl)ethyl]-4-selenocyanatobutanamide] | 0.81 ± 0.02 |

tested on: HBL-100 (breast); assay: Antiproliferative activity, NCI protocol; type: cell-based, human; details: Homo sapiens, HBL-100; read-out: GI50 HBL-100 (Breast)
Method: as §1, §2

| SMILES | GI50 [µM] |
| --- | --- |
| N#C[Se]CCc1ccc2c(c1)OCO2 [Compound 36, 2-(3′,4′-Methylendioxyphenyl)ethyl selenocyanate] | 2.1 ± 0.2 |
| c1cc2c(cc1CC[Se][Se]CCc1ccc3c(c1)OCO3)OCO2 [Compound 40, Bis[2-(3′,4′-methylenedioxyphenyl)ethyl]diselenide] | 2 ± 0.9 |
| N#C[Se]CCCC(=O)NCCc1ccc2c(c1)OCO2 [Compound 45, N-[2′-(3′,4′-Methylenedioxyphenyl)ethyl]-4-selenocyanatobutanamide] | 1.6 ± 0.3 |

tested on: T-47D (breast); assay: Antiproliferative activity, NCI protocol; type: cell-based, human; details: Homo sapiens, T47D; drug resistant line; read-out: GI50 T-47D (Breast)
Method: as §1, §2

| SMILES | GI50 [µM] |
| --- | --- |
| N#C[Se]CCc1ccc2c(c1)OCO2 [Compound 36, 2-(3′,4′-Methylendioxyphenyl)ethyl selenocyanate] | 1.1 ± 0.3 |
| c1cc2c(cc1CC[Se][Se]CCc1ccc3c(c1)OCO3)OCO2 [Compound 40, Bis[2-(3′,4′-methylenedioxyphenyl)ethyl]diselenide] | 0.88 ± 0.17 |
| N#C[Se]CCCC(=O)NCCc1ccc2c(c1)OCO2 [Compound 45, N-[2′-(3′,4′-Methylenedioxyphenyl)ethyl]-4-selenocyanatobutanamide] | 0.4 ± 0.04 |

tested on: A549 (non-small cell lung); assay: Antiproliferative activity, NCI protocol; type: cell-based, human; details: Homo sapiens, A549; read-out: GI50 A549 (Lung)
Method: as §1, §2

| SMILES | GI50 [µM] |
| --- | --- |
| N#C[Se]CCc1ccc2c(c1)OCO2 [Compound 36, 2-(3′,4′-Methylendioxyphenyl)ethyl selenocyanate] | 1.8 ± 0.7 |
| c1cc2c(cc1CC[Se][Se]CCc1ccc3c(c1)OCO3)OCO2 [Compound 40, Bis[2-(3′,4′-methylenedioxyphenyl)ethyl]diselenide] | 1.6 ± 0.5 |
| N#C[Se]CCCC(=O)NCCc1ccc2c(c1)OCO2 [Compound 45, N-[2′-(3′,4′-Methylenedioxyphenyl)ethyl]-4-selenocyanatobutanamide] | 0.41 ± 0.03 |

tested on: HeLa (cervix); assay: Antiproliferative activity, NCI protocol; type: cell-based, human; details: Homo sapiens, HeLa; read-out: GI50 HeLa (Cervix)
Method: as §1, §2

| SMILES | GI50 [µM] |
| --- | --- |
| N#C[Se]CCc1ccc2c(c1)OCO2 [Compound 36, 2-(3′,4′-Methylendioxyphenyl)ethyl selenocyanate] | 1.2 ± 0.2 |
| c1cc2c(cc1CC[Se][Se]CCc1ccc3c(c1)OCO3)OCO2 [Compound 40, Bis[2-(3′,4′-methylenedioxyphenyl)ethyl]diselenide] | 0.95 ± 0.07 |
| N#C[Se]CCCC(=O)NCCc1ccc2c(c1)OCO2 [Compound 45, N-[2′-(3′,4′-Methylenedioxyphenyl)ethyl]-4-selenocyanatobutanamide] | 0.36 ± 0.09 |

tested on: six human tumour cell lines (A549, HBL-100, HeLa, SW1573, T-47D, WiDr); assay: Antiproliferative activity, panel of six human tumour cell lines; type: cell-based; details: Homo sapiens; summary over the tested tumour cell lines; highest tested concentration 100 µM; read-out: GI50 over the tumour cell lines (range, bound or words)
Method: as §1, §2

| SMILES | GI50 [µM] |
| --- | --- |
| N#C[Se]CCCC(=O)NCCc1ccc2c(c1)OCO2 [Compound 45, N-[2′-(3′,4′-Methylenedioxyphenyl)ethyl]-4-selenocyanatobutanamide] | 0.36 to 1.6 |

same assay, conditions: summary over the tested tumour cell lines; highest tested concentration 100 µM

| SMILES | GI50 over the tumour cell lines (range, bound or words) |
| --- | --- |
| N#C[Se]CCc1ccc2c(c1)OCO2 [Compound 36, 2-(3′,4′-Methylendioxyphenyl)ethyl selenocyanate] | low micromolar‒submicromolar activities |
| c1cc2c(cc1CC[Se][Se]CCc1ccc3c(c1)OCO3)OCO2 [Compound 40, Bis[2-(3′,4′-methylenedioxyphenyl)ethyl]diselenide] | low micromolar‒submicromolar activities |

tested on: SW1573; assay: P-glycoprotein assay, wild type line; type: cell-based; details: Homo sapiens, 48 h exposure, with verapamil, read-out: GI50 SW153 w Verapamil
Method: (§3) This assay allows prediction of whether a certain chemotherapeutic agent could develop chemoresistance when behaving as a P-gp substrate, one of the most common efllux-pumps used for the extrusion of cell xenobiotics. For that purpose, a cell line-based assay was used, in particular the lung cancer cell line in its wild type (SW1573), and its variant overexpressing P-gp (Sw1573/Pgp). Moreover, compounds were tested in the presence and in the absence of verapamil, which is known to inhibit P-gp. Chemotherapeutic agents paclitaxel (PTX) and vinblastine (VB) are used herein as reference compounds. In this assay, the resistance factor (Rf) for a certain compound is defined as the ratio of GI50 in the cell line overexpressing P-gp and the wild one (Table 4), high values of Rf denoting that the compound behaves as a P-gp substrate, and thus, chemoresistance through this mechanism will probably take place.

| SMILES | GI50 [µM] |
| --- | --- |
| N#C[Se]CCc1ccc2c(c1)OCO2 [Compound 36, 2-(3′,4′-Methylendioxyphenyl)ethyl selenocyanate] | 3.1 ± 0.4 |
| c1cc2c(cc1CC[Se][Se]CCc1ccc3c(c1)OCO3)OCO2 [Compound 40, Bis[2-(3′,4′-methylenedioxyphenyl)ethyl]diselenide] | 1.8 ± 0.2 |
| N#C[Se]CCCC(=O)NCCc1ccc2c(c1)OCO2 [Compound 45, N-[2′-(3′,4′-Methylenedioxyphenyl)ethyl]-4-selenocyanatobutanamide] | 1.1 ± 0.1 |

same assay, conditions: Homo sapiens, 48 h exposure, without verapamil, read-out: GI50 SW1573 w/o Verapamil

| SMILES | GI50 [µM] |
| --- | --- |
| N#C[Se]CCc1ccc2c(c1)OCO2 [Compound 36, 2-(3′,4′-Methylendioxyphenyl)ethyl selenocyanate] | 4.2 ± 0.7 |
| c1cc2c(cc1CC[Se][Se]CCc1ccc3c(c1)OCO3)OCO2 [Compound 40, Bis[2-(3′,4′-methylenedioxyphenyl)ethyl]diselenide] | 1.9 ± 0.1 |
| N#C[Se]CCCC(=O)NCCc1ccc2c(c1)OCO2 [Compound 45, N-[2′-(3′,4′-Methylenedioxyphenyl)ethyl]-4-selenocyanatobutanamide] | 1.1 ± 0.2 |

tested on: not listed separately; assay: P-glycoprotein assay, line overexpressing P-gp; type: cell-based, human; details: human, with verapamil (concentration not stated); 48 h exposure, with verapamil; read-out: GI50 SW1573/PGP w Verapamil
Method: as §3

| SMILES | GI50 at 48 h [µM] |
| --- | --- |
| N#C[Se]CCc1ccc2c(c1)OCO2 [Compound 36, 2-(3′,4′-Methylendioxyphenyl)ethyl selenocyanate] | 5.3 ± 0.6 |
| c1cc2c(cc1CC[Se][Se]CCc1ccc3c(c1)OCO3)OCO2 [Compound 40, Bis[2-(3′,4′-methylenedioxyphenyl)ethyl]diselenide] | 4.5 ± 1 |
| N#C[Se]CCCC(=O)NCCc1ccc2c(c1)OCO2 [Compound 45, N-[2′-(3′,4′-Methylenedioxyphenyl)ethyl]-4-selenocyanatobutanamide] | 2.5 ± 0.1 |

same assay, conditions: human; 48 h exposure, without verapamil; read-out: GI50 SW1573/PGP w/o Verapamil

| SMILES | GI50 at 48 h [µM] |
| --- | --- |
| N#C[Se]CCc1ccc2c(c1)OCO2 [Compound 36, 2-(3′,4′-Methylendioxyphenyl)ethyl selenocyanate] | 6.8 ± 0.4 |
| c1cc2c(cc1CC[Se][Se]CCc1ccc3c(c1)OCO3)OCO2 [Compound 40, Bis[2-(3′,4′-methylenedioxyphenyl)ethyl]diselenide] | 3.9 ± 0.2 |
| N#C[Se]CCCC(=O)NCCc1ccc2c(c1)OCO2 [Compound 45, N-[2′-(3′,4′-Methylenedioxyphenyl)ethyl]-4-selenocyanatobutanamide] | 3.3 ± 0.6 |

tested on: SW1573/Pgp; assay: P-glycoprotein assay, line overexpressing P-gp; type: cell-based, human; details: ratio between GI50 values in SW1573/PGP and SW1573 cells, with verapamil
Method: as §3

| SMILES | Rf w Verapamil |
| --- | --- |
| N#C[Se]CCc1ccc2c(c1)OCO2 [Compound 36, 2-(3′,4′-Methylendioxyphenyl)ethyl selenocyanate] | 1.7 |
| c1cc2c(cc1CC[Se][Se]CCc1ccc3c(c1)OCO3)OCO2 [Compound 40, Bis[2-(3′,4′-methylenedioxyphenyl)ethyl]diselenide] | 2.5 |
| N#C[Se]CCCC(=O)NCCc1ccc2c(c1)OCO2 [Compound 45, N-[2′-(3′,4′-Methylenedioxyphenyl)ethyl]-4-selenocyanatobutanamide] | 2.3 |

same assay, conditions: ratio between GI50 values in SW1573/PGP and SW1573 cells, without verapamil

| SMILES | Rf w/o Verapamil |
| --- | --- |
| N#C[Se]CCc1ccc2c(c1)OCO2 [Compound 36, 2-(3′,4′-Methylendioxyphenyl)ethyl selenocyanate] | 1.6 |
| c1cc2c(cc1CC[Se][Se]CCc1ccc3c(c1)OCO3)OCO2 [Compound 40, Bis[2-(3′,4′-methylenedioxyphenyl)ethyl]diselenide] | 2.0 |
| N#C[Se]CCCC(=O)NCCc1ccc2c(c1)OCO2 [Compound 45, N-[2′-(3′,4′-Methylenedioxyphenyl)ethyl]-4-selenocyanatobutanamide] | 3.1 |

tested on: BJ-hTert (fibroblasts); assay: Antiproliferative activity on non-tumour cells, NCI protocol; type: cell-based, human; details: Homo sapiens, Fibroblast; non-tumour cell line; read-out: GI50 BJ-hTert (Fibroblasts)
Method: as §1, §2

| SMILES | GI50 [µM] |
| --- | --- |
| N#C[Se]CCc1ccc2c(c1)OCO2 [Compound 36, 2-(3′,4′-Methylendioxyphenyl)ethyl selenocyanate] | 14 ± 2 |
| c1cc2c(cc1CC[Se][Se]CCc1ccc3c(c1)OCO3)OCO2 [Compound 40, Bis[2-(3′,4′-methylenedioxyphenyl)ethyl]diselenide] | 28 ± 5 |
| N#C[Se]CCCC(=O)NCCc1ccc2c(c1)OCO2 [Compound 45, N-[2′-(3′,4′-Methylenedioxyphenyl)ethyl]-4-selenocyanatobutanamide] | 1.8 ± 0.7 |
